According to patent US20120264928A1, “THERAPEUTIC PHARMACEUTICAL AGENT FOR DISEASES ASSOCIATED WITH DECREASE IN FUNCTION OF GNE PROTEIN, FOOD COMPOSITION, AND FOOD ADDITIVE” (JAPAN HEALTH SCIENCES FOUNDATION, priority 2009, published 2012):

Test system: primary cultured cells of myotubes derived from the DMRV model mice
Assay: Amount of NeuAc by HPLC in myotubes from DMRV model mice
Format: cell-based
Conditions: 100 or 500 μm Ac5GlcNAcol together with 10 mM ManNAc, three days
Experimental: The skeletal muscle tissues collected from the DMRV human patients or the model mice were lightly washed with PBS or Hank's balanced saline and were treated with 0.25% trypsin for 5 minutes. The tissues were finely cut into several millimeters with ophthalmic scissors, were digested with 0.4% collagenase II/0.25% trypsin at 37° C. for 30 minutes, and were left still to collect supernatant. The precipitate was again treated with the enzyme liquid. After being left still, the precipitate was well suspended in a DMEM-Ham's F-12 culture medium. The tissue suspension was passed through a nylon mesh to remove the tissues. The washings and the supernatant were centrifuged to collect cells. […]
In the case that the sample was cultured cells, the cells were washed with PBS three times, and 400 p. […] The fluorescent derivative thus prepared was analyzed with HPLC (JASCO Corp.) using 0.05 to 5 nmol/μl Neu5Ac and Neu5Gc standards. The amount of protein from the tissue was measured with a Bio-Rad Protein Assay kit (Bio-Rad Laboratories).
ManNAc or Ac5GlcNAcol was added to the culture media of primary cultured cells of myotubes derived from the DMRV model mice such that the final concentration of ManNAc was 10 mM and the final concentration of Ac5GlcNAcol was […]. […] The amount of NeuAc in the cultured cells was measured by the HPLC method described above (N=3).

With `CC(=O)N[C@@H](COC(C)=O)[C@@H](OC(C)=O)[C@H](OC(C)=O)[C@@H](COC(C)=O)OC(C)=O` [Ac5GlcNAcol, Penta-O-acetyl N-acetylglucosaminitol] the “amount of NeuAc in the myotubes” value was “further increased the amount of NeuAc”.
